Laboratory results published in US12123010B2, “Plants having increased tolerance to herbicides” (BASF SE, priority 2017, dated 2024).
Values joined by “and” are separate entries in the source; they are usually repeats but may differ in a detail not shown here. Equal values may be shown once.

Assays:
[1] = target: Wild Type PPO Enzyme (Amaranthus PPO2, SEQ ID NO: 1) (Amaranthus tuberculatus, UniProt Q0NZW9); assay: PPO enzyme assay (recombinant), wild type; assay type: biochemical
[2] = system: Variant PPO Enzyme R128A, F420V (Amaranthus PPO2); assay: biochemical; assay type: biochemical; conditions: variant R128A, F420V vs wild type
[3] = system: Variant PPO Enzyme R128A, F420M (Amaranthus PPO2); assay type: biochemical; conditions: variant R128A, F420M vs wild type
[4] = system: Variant PPO Enzyme F420M (Amaranthus PPO2); assay: biochemical; assay type: biochemical; conditions: variant F420M vs wild type
[5] = system: Transgenic T2 Arabidopsis plants harboring PPO inhibitor tolerance trait; assay: Lab based germination assay in 48-well plates (Table i); assay type: in vivo, Arabidopsis thaliana; conditions: construct AMATU_PPO2_TP_hemG (Escherichia coli); in comparison to wild type plants
[6] = system: Transgenic T2 Arabidopsis plants and ARBTH WT MC24 non-transgenic; assay: Greenhouse post spray test, injury 14 DAT (Tables ii, iii); assay type: in vivo, Arabidopsis thaliana; conditions: for pest or weed control at 50 g/ha / pest or weed control at 100 g/ha / pest or weed control at 200 g/ha / pest or weed control at 1 g/ha / pest or weed control at 5 g/ha / pest or weed control at 10 g/ha / pest or weed control at 30 g/ha / pest or weed control at 80 g/ha: Arabidopsis thaliana, 336 h;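 as to all read-outs here: value is percent injury to the sprayed plants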
[7] = system: Transgenic T2 Corn plants harbouring PPO inhibitor tolerance trait and J553 non transgenic; assay: Corn Trial, post spray, injury score 14 DAT; assay type: in vivo
Protocol: Immature embryos are transformed according to the procedure outlined in Peng et al. (WO2006/136596). Plants are tested for the presence of the T-DNA by Taqman analysis with the target being the nos terminator which is present in all constructs. Healthy looking plants are sent to the greenhouse for hardening and subsequent spray testing. The plants are individually transplanted into MetroMix 360 soil in 4″ pots. Once in the greenhouse (day/night cycle of 27° C./21° C. with 14 hour day length supported by 600 W high pressure sodium lights), they are allowed to grow for 14 days. TO or T1 plants are sprayed with a treatment of the uracilpyridines as disclosed SUPRA and photosynthesis inhibitor diuron as negative control. Herbicide injury evaluations are taken at 7, 14 and 21 days after treatment. Herbicide injury evaluations are taken 2, 7, 14 and 21 days post-spray to look for injury to new growth points and overall plant health. The top survivors are transplanted into gallon pots filled with MetroMix 360 for seed production.
(§1) Transgenic T2 Corn plants harbouring PPO inhibitor tolerance trait, were sprayed post with the indicated amount of uracilpyridine+1% (v/v) MSO. Evaluation performed 14 Days After Treatment (DAT) and shown as injury (0-9) relative to non-transgenic treated plants.
Injury Scale: 0-9, 0=no injury, 9=maximum injury. Note: segregating lines.

[8] = system: Transgenic T2 or T3 Soybean plants harbouring PPO inhibitor tolerance trait; assay: Soybean Trial, post spray, injury score 14 DAT; assay type: in vivo
Protocol: Soybean cv Jake is transformed as previously described by Siminszky et al., Phytochem Rev. 5:445-458 (2006). After regeneration, transformants are transplanted to soil in small pots, placed in growth chambers (16 hr day/8 hr night; 25° C. day/23° C. night; 65% relative humidity; 130-150 microE m-2 s-1) and subsequently tested for the presence of the T-DNA via Taqman analysis. After a few weeks, healthy, transgenic positive, single copy events are transplanted to larger pots and allowed to grow in the growth chamber. An optimal shoot for cutting is about 3-4 inches tall, with at least two nodes present. Each cutting is taken from the original transformant (mother plant) and dipped into rooting hormone powder (indole-3-butyric acid, IBA). The cutting is then placed in oasis wedges inside a bio-dome. The mother plant is taken to maturity in the greenhouse and harvested for seed. Wild type cuttings are also taken simultaneously to serve as negative controls. The cuttings are kept in the bio-dome for 5-7 days and then transplanted to 3 inch pots and then acclimated in the growth chamber for two more days. Subsequently, the cuttings are transferred to the greenhouse, acclimated for approximately 4 days prior to spray. T0 or 2-week old T1 plants are sprayed with a treatment of the uracilpyridines as disclosed SUPRA and photosynthesis inhibitor diuron as negative control. Herbicide injury evaluations are taken at 2, 7, 14 and 21 days after treatment.
as §1, with “or T3 Soybean” for “Corn”, “plants. Injury Scale: 0-9, 0=no imjury, 9=maximum injury. Note: segregating lines.” for “plants.”

[9] = Table iii, ALOMY_PPO2_R137L_F438M (unnamed lines), 50 g ai/ha
[10] = Table iii, ALOMY_PPO2_R137L_F438M (unnamed lines), 100 g ai/ha

Chain of Wild Type PPO Enzyme (Amaranthus PPO2, SEQ ID NO: 1) (Q0NZW9 1-534): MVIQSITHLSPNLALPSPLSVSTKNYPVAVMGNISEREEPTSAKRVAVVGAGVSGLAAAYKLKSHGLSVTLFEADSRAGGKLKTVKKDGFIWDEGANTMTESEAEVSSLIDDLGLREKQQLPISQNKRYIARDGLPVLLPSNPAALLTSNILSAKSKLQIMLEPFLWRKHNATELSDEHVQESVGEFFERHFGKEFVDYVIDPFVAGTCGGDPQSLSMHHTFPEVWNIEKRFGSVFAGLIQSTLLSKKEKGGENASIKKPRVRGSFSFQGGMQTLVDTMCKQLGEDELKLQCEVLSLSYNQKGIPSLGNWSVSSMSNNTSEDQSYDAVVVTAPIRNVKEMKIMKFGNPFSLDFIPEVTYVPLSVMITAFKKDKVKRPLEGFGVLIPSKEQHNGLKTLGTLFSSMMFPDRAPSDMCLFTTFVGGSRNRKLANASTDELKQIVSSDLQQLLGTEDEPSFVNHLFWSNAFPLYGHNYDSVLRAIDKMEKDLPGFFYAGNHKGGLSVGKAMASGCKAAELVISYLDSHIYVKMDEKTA

CCOC(=O)COc1ccccc1Oc1nc(-n2c(=O)cc(C(F)(F)F)n(C)c2=O)c(F)cc1Cl [Uracilpyridine 4, ethyl 2-[2-[[3-chloro-5-fluoro-6-[3-methyl-2,6-dioxo-4-(trifluoromethyl)pyrimidin-1-yl]-2-pyridyl]oxy]phenoxy]acetate]
IC50 [1]: 0.173 nM
Tolerance Factor (R/S) [2]: 1718
Tolerance Factor (R/S) [3]: 401
Tolerance Factor (R/S) [4]: 55
Tolerance Factor [5]: 810000
pest or weed control at 50 g/ha ([6]; Table ii, ALOMY_PPO2_R137L_F438V event F, 50 g ai/ha): 8%
pest or weed control at 100 g/ha ([6]; Table ii, ALOMY_PPO2_R137L_F438V event F, 100 g ai/ha): 20%
pest or weed control at 200 g/ha ([6]; Table ii, ALOMY_PPO2_R137L_F438V event F, 200 g ai/ha): 20%
pest or weed control at 50 g/ha ([6]; Table ii, ALOMY_PPO2_R137L_F438V event G, 50 g ai/ha): 8%
pest or weed control at 100 g/ha ([6]; Table ii, ALOMY_PPO2_R137L_F438V event G, 100 g ai/ha): 15%
pest or weed control at 200 g/ha ([6]; Table ii, ALOMY_PPO2_R137L_F438V event G, 200 g ai/ha): 8%
pest or weed control at 50 g/ha ([6]; Table ii, ALOMY_PPO2_TP_AMATU_PPO2_R128M_F420I event R, 50 g ai/ha): 40%
pest or weed control at 100 g/ha ([6]; Table ii, ALOMY_PPO2_TP_AMATU_PPO2_R128M_F420I event R, 100 g ai/ha): 60%
pest or weed control at 200 g/ha ([6]; Table ii, ALOMY_PPO2_TP_AMATU_PPO2_R128M_F420I event R, 200 g ai/ha): 80%
pest or weed control at 50 g/ha ([6]; Table ii, AMATU_PPO2_R128A_F420M event Q, 50 g ai/ha): 55%
pest or weed control at 100 g/ha ([6]; Table ii, AMATU_PPO2_R128A_F420M event Q, 100 g ai/ha): 60%
pest or weed control at 200 g/ha ([6]; Table ii, AMATU_PPO2_R128A_F420M event Q, 200 g ai/ha): 60%
pest or weed control at 50 g/ha ([6]; Table ii, AMATU_PPO2_R128M_F420I event K, 50 g ai/ha): 30%
pest or weed control at 100 g/ha ([6]; Table ii, AMATU_PPO2_R128M_F420I event K, 100 g ai/ha): 58%
pest or weed control at 200 g/ha ([6]; Table ii, AMATU_PPO2_R128M_F420I event K, 200 g ai/ha): 73%
pest or weed control at 50 g/ha ([6]; Table ii, AMATU_PPO2_TP_hemG event R, 50 g ai/ha): 30%
pest or weed control at 100 g/ha ([6]; Table ii, AMATU_PPO2_TP_hemG event R, 100 g ai/ha): 38%
pest or weed control at 200 g/ha ([6]; Table ii, AMATU_PPO2_TP_hemG event R, 200 g ai/ha): 65%
pest or weed control at 1 g/ha ([6]; Table ii, AMATU_PPO2_WT event Q, 1 g ai/ha): 25%
pest or weed control at 5 g/ha ([6]; Table ii, AMATU_PPO2_WT event Q, 5 g ai/ha): 88%
pest or weed control at 10 g/ha ([6]; Table ii, AMATU_PPO2_WT event Q, 10 g ai/ha): 100%
pest or weed control at 30 g/ha ([6]; Table ii, AMATU_PPO2_WT event Q, 30 g ai/ha): 100%
pest or weed control at 1 g/ha ([6]; Table ii, ARBTH WT MC24 non-transgenic, 1 g ai/ha + 1% MSO): 100%
pest or weed control at 5 g/ha ([6]; Table ii, ARBTH WT MC24 non-transgenic, 5 g ai/ha + 1% MSO): 100%
pest or weed control at 10 g/ha ([6]; Table ii, ARBTH WT MC24 non-transgenic, 10 g ai/ha + 1% MSO): 100%
pest or weed control at 30 g/ha ([6]; Table ii, ARBTH WT MC24 non-transgenic, 30 g ai/ha + 1% MSO): 100%
pest or weed control at 50 g/ha ([6]; Table ii, ARBTH WT MC24 non-transgenic, 50 g ai/ha + 1% MSO): 100%
pest or weed control at 80 g/ha ([6]; Table ii, ARBTH WT MC24 non-transgenic, 80 g ai/ha + 1% MSO): 100%
pest or weed control at 100 g/ha ([6]; Table ii, ARBTH WT MC24 non-transgenic, 100 g ai/ha + 1% MSO): 100%
pest or weed control at 200 g/ha ([6]; Table ii, ARBTH WT MC24 non-transgenic, 200 g ai/ha + 1% MSO): 100%
pest or weed control at 5 g/ha ([6]; Table ii, ARBTH_PPO1_S305L_Y426M event O, 5 g ai/ha): 0%
pest or weed control at 10 g/ha ([6]; Table ii, ARBTH_PPO1_S305L_Y426M event O, 10 g ai/ha): 0%
pest or weed control at 30 g/ha ([6]; Table ii, ARBTH_PPO1_S305L_Y426M event O, 30 g ai/ha): 0%
pest or weed control at 80 g/ha ([6]; Table ii, ARBTH_PPO1_S305L_Y426M event O, 80 g ai/ha): 95%
pest or weed control at 1 g/ha ([6]; Table ii, ARBTH_PPO1_WT event Q, 1 g ai/ha): 33%
pest or weed control at 5 g/ha ([6]; Table ii, ARBTH_PPO1_WT event Q, 5 g ai/ha): 99%
pest or weed control at 10 g/ha ([6]; Table ii, ARBTH_PPO1_WT event Q, 10 g ai/ha): 100%
pest or weed control at 30 g/ha ([6]; Table ii, ARBTH_PPO1_WT event Q, 30 g ai/ha): 100%
pest or weed control at 50 g/ha [6, 9]: 0%
pest or weed control at 100 g/ha [6, 10]: 0%
pest or weed control at 50 g/ha ([6]; Table iii, AMATU_PPO2_L397Q_F420V (unnamed lines), 50 g ai/ha): 60%
pest or weed control at 100 g/ha ([6]; Table iii, AMATU_PPO2_L397Q_F420V (unnamed lines), 100 g ai/ha): 80%
pest or weed control at 100 g/ha ([6]; Table iii, AMATU_PPO2_R128A_F420I (unnamed lines), 100 g ai/ha): 55%
pest or weed control at 50 g/ha ([6]; Table iii, AMATU_PPO2_R128A_F420V (unnamed lines), 50 g ai/ha): 75%
pest or weed control at 50 g/ha ([6]; Table iii, ARBTH WT MC 24 (non-transgenic), 50 g ai/ha + 1% MSO): 100%
pest or weed control at 100 g/ha ([6]; Table iii, ARBTH WT MC 24 (non-transgenic), 100 g ai/ha + 1% MSO): 100%
injury (%) [6, 9]: 0%
injury (%) [6, 10]: 0%
injury (0-9) ([7]; 25 g/ha + 1% MSO): 7
injury (0-9) ([7]; 50 g/ha + 1% MSO): 7
injury (0-9) ([8]; L397E, F420M Event 2, 25 g/ha + 1% (v/v) MSO): 0 (No Injury)
injury (0-9) ([8]; L397E, F420M Event 2, 50 g/ha + 1% (v/v) MSO): 0 (No Injury)
injury (0-9) ([8]; L397E, F420M Event 2, 100 g/ha + 1% (v/v) MSO): 0 (No Injury)
injury (0-9) ([8]; L397E, F420V Event 1, 25 g/ha + 1% (v/v) MSO): 0 (No Injury)
injury (0-9) ([8]; L397E, F420V Event 1, 50 g/ha + 1% (v/v) MSO): 0 (No Injury)
injury (0-9) ([8]; L397E, F420V Event 1, 100 g/ha + 1% (v/v) MSO): 0 (No Injury)
injury (0-9) ([8]; L397Q, F420M Event 3, 25 g/ha + 1% (v/v) MSO): 0 (No Injury)
injury (0-9) ([8]; L397Q, F420M Event 3, 50 g/ha + 1% (v/v) MSO): 3
injury (0-9) ([8]; L397Q, F420M Event 3, 100 g/ha + 1% (v/v) MSO): 3 and 4
